Among the data in ChEMBL document CHEMBL1159126, “Salicylanilide carbamates: antitubercular agents active against multidrug-resistant Mycobacterium tuberculosis strains” (Bioorg Med Chem, 2010) are MIC values, retold here.

In brackets after ≈: the same amount, converted by molar mass.

Holding throughout (experiment): microbe, parasite or virus in culture
The subject of assay [1] is Mycobacterium tuberculosis. The note with it: isolate 7357/98, 336 h.
In assay [2] the test system is Mycobacterium tuberculosis. Particulars: isolate 7357/98, 504 h.
The test system of assay [3] is Mycobacterium tuberculosis. The note with it: isolate 9449/06, 336 h.
In assay [4] the test system is Mycobacterium tuberculosis. The note with it: isolate 9449/06, 504 h.
Assay [5] concerns Mycobacterium tuberculosis. Particulars: isolate 2092/05, 336 h.
Assay [6] has as its system Mycobacterium tuberculosis. The note with it: isolate 2092/05, 504 h.
Assay [7] relates to Mycobacterium tuberculosis. Particulars: isolate Praha 1, 336 h.
Assay [8] has as its system Mycobacterium tuberculosis. The note with it: isolate Praha 1, 504 h.
The subject of assay [9] is Mycobacterium tuberculosis. Particulars: isolate Praha 128, 336 h.
In assay [10] the test system is Mycobacterium tuberculosis. The note with it: isolate Praha 128, 504 h.

`CCCCCCNC(=O)Oc1ccc(Cl)cc1C(=O)Nc1ccc(Cl)c(Cl)c1`: the MIC in assay [1] was found to be 0.5 µM (≈ 0.222 µg/mL); in assay [2], 1 µM (≈ 0.444 µg/mL); in assay [3], 0.5 µM (≈ 0.222 µg/mL); in assay [4], 0.5 µM (≈ 0.222 µg/mL); in assay [5] it was 0.5 µM (≈ 0.222 µg/mL); in [6], 0.5 µM (≈ 0.222 µg/mL). The MIC in assay [7] is 0.5 µM (≈ 0.222 µg/mL); in assay [8], 1 µM (≈ 0.444 µg/mL); in assay [9], 0.5 µM (≈ 0.222 µg/mL); in assay [10], 0.5 µM (≈ 0.222 µg/mL).
As for `CCNC(=O)Oc1ccc(Cl)cc1C(=O)Nc1ccc(Cl)c(Cl)c1`, the MIC in [1] was 0.5 µM (≈ 0.194 µg/mL); in assay [2], 1 µM (≈ 0.388 µg/mL); in [3], 0.5 µM (≈ 0.194 µg/mL); in assay [4], 0.5 µM (≈ 0.194 µg/mL); in assay [5] it was 0.5 µM (≈ 0.194 µg/mL); in [6] it was 0.5 µM (≈ 0.194 µg/mL). In addition, the MIC in assay [7] is 0.5 µM (≈ 0.194 µg/mL); in assay [8], 1 µM (≈ 0.388 µg/mL); in assay [9], 0.5 µM (≈ 0.194 µg/mL); in [10], 0.5 µM (≈ 0.194 µg/mL).
In the case of `CCCCNC(=O)Oc1ccc(Cl)cc1C(=O)Nc1ccc(Cl)c(Cl)c1`, the MIC in assay [1] was determined as 0.5 µM (≈ 0.208 µg/mL); in assay [2], 1 µM (≈ 0.416 µg/mL); in assay [3] it was 1 µM (≈ 0.416 µg/mL); in [4], 0.5 µM (≈ 0.208 µg/mL); in assay [5], 0.5 µM (≈ 0.208 µg/mL); in assay [6], 1 µM (≈ 0.416 µg/mL). Moreover, the MIC in assay [7] is 0.5 µM (≈ 0.208 µg/mL); in assay [8], 1 µM (≈ 0.416 µg/mL); in assay [9], 0.5 µM (≈ 0.208 µg/mL); in [10], 1 µM (≈ 0.416 µg/mL).
On to `CCCCCNC(=O)Oc1ccc(Cl)cc1C(=O)Nc1ccc(Cl)c(Cl)c1`, for which the MIC in assay [1], in assay [2], in assay [3], in assay [4], in assay [5] and in assay [6] was 0.5 µM (≈ 0.215 µg/mL) in each case. Also, the MIC worked out at 0.5 µM (≈ 0.215 µg/mL) in assay [7], 1 µM (≈ 0.43 µg/mL) in assay [8], 0.5 µM (≈ 0.215 µg/mL) in [9] and 0.5 µM (≈ 0.215 µg/mL) in assay [10].
In the case of `CCCCCNC(=O)Oc1ccc(Cl)cc1C(=O)Nc1ccc(Cl)cc1`, the MIC in [1] amounted to 1 µM (≈ 0.395 µg/mL); in [2] it was 2 µM (≈ 0.791 µg/mL); in assay [3], 1 µM (≈ 0.395 µg/mL); in assay [4], 1 µM (≈ 0.395 µg/mL); in assay [5], 1 µM (≈ 0.395 µg/mL); in assay [6] it was 1 µM (≈ 0.395 µg/mL). Moreover, the MIC amounted to 1 µM (≈ 0.395 µg/mL) in assay [7], 2 µM (≈ 0.791 µg/mL) in [8], 1 µM (≈ 0.395 µg/mL) in assay [9] and 1 µM (≈ 0.395 µg/mL) in assay [10].
In the case of `CCCCCCCNC(=O)Oc1ccc(Cl)cc1C(=O)Nc1ccc(Cl)c(Cl)c1`, the MIC amounted to 0.5 µM (≈ 0.229 µg/mL) in assay [1]; 0.5 µM (≈ 0.229 µg/mL) in assay [2]; 0.5 µM (≈ 0.229 µg/mL) in [3]; 0.5 µM (≈ 0.229 µg/mL) in [4]; 0.5 µM (≈ 0.229 µg/mL) in [5]; 1 µM (≈ 0.458 µg/mL) in assay [6]. In addition, the MIC worked out at 0.5 µM (≈ 0.229 µg/mL) in [7], 1 µM (≈ 0.458 µg/mL) in assay [8], 0.5 µM (≈ 0.229 µg/mL) in assay [9] and 1 µM (≈ 0.458 µg/mL) in assay [10].
For `CCCCCCCCNC(=O)Oc1ccc(Cl)cc1C(=O)Nc1ccc(Cl)c(Cl)c1`, the MIC was found to be 1 µM (≈ 0.472 µg/mL) in [1]; 1 µM (≈ 0.472 µg/mL) in assay [2]; 1 µM (≈ 0.472 µg/mL) in assay [3]; 0.5 µM (≈ 0.236 µg/mL) in assay [4]; 0.5 µM (≈ 0.236 µg/mL) in assay [5]; 1 µM (≈ 0.472 µg/mL) in assay [6]. Also, the MIC in assay [7] amounted to 1 µM (≈ 0.472 µg/mL); in assay [8] it was 2 µM (≈ 0.944 µg/mL); in [9] it was 0.5 µM (≈ 0.236 µg/mL); in assay [10], 1 µM (≈ 0.472 µg/mL).
In the case of `CCCCCCNC(=O)Oc1ccc(Cl)cc1C(=O)Nc1cccc(Cl)c1`, the MIC in assay [1] came to 1 µM (≈ 0.409 µg/mL); in assay [2], 1 µM (≈ 0.409 µg/mL); in assay [3], 1 µM (≈ 0.409 µg/mL); in [4] it was 1 µM (≈ 0.409 µg/mL); in assay [5] it was 1 µM (≈ 0.409 µg/mL); in assay [6], 2 µM (≈ 0.819 µg/mL). The MIC in assay [7] worked out at 1 µM (≈ 0.409 µg/mL); in [8], 2 µM (≈ 0.819 µg/mL); in assay [9], 1 µM (≈ 0.409 µg/mL); in assay [10] it was 2 µM (≈ 0.819 µg/mL).
For the compound `NNC(=O)c1ccncc1` [ISONIAZID], the MIC in [1], in assay [2], in assay [3], in assay [4], in [5] and in assay [6] was 16 µM (≈ 2.19 µg/mL) each time. Moreover, the MIC in assay [7], in assay [8], in [9] and in [10] was 16 µM (≈ 2.19 µg/mL) in each case.
